In ChEMBL document CHEMBL1201862, “PubChem BioAssay data set” (2004):
Activity calls are given as the source filed them.

Columns and labels:
[1] = tested on: Escherichia coli; assay: microbe, parasite or virus in culture
[2] = molecular target: T1, Leucine aminopeptidase (Plasmodium falciparum 3D7, UniProt Q8IL11); assay: P. falciparum M17LAP inhibitors, primary screen, biochemical, fluorogenic H-Leu-NHMec substrate, 1536-well (AID 1619); type: functional
T1 sequence (Q8IL11 whole entry): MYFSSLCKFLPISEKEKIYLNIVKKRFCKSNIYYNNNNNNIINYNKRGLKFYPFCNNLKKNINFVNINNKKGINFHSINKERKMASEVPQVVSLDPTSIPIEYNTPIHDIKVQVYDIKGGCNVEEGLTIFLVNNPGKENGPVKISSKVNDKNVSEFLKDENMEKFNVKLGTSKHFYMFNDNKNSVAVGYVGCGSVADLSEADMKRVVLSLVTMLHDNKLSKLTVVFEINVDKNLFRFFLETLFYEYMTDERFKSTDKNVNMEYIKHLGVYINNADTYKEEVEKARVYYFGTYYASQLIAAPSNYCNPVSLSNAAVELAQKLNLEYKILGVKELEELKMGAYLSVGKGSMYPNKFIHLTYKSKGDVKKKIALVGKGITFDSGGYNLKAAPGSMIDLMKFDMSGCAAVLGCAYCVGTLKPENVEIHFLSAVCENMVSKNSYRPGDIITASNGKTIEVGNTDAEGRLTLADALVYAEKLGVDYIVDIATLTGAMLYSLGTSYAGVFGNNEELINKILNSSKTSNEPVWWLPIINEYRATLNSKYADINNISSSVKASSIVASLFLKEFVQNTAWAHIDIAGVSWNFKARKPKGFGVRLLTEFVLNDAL

[3] = cells; type: functional, cell-based
[4] = cells; type: functional, cell-based; remark: listed apart in the source
[5] = NIH-3T3 fibroblast cytotoxicity, dose response, cytotoxicity control, cell-based, fluorescence, Alamar Blue, secondary assay (AID 2327); type: functional;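 further: NIH-3T3 mouse fibroblasts cultured with fluconazole at 8 µg/mL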
[6] = C. albicans growth with fluconazole, confirmation, fluorescence, retest (AID 2467); type: functional, cell-based
[7] = molecular target: Beta-galactosidase (Escherichia coli, UniProt Q8VNN2); assay: Dose response counterscreen for EBI2 assay utilizing the enzyme, b-galactosidase.; type: functional
Chain of Beta-galactosidase (Q8VNN2 whole entry, the tested form may be a part): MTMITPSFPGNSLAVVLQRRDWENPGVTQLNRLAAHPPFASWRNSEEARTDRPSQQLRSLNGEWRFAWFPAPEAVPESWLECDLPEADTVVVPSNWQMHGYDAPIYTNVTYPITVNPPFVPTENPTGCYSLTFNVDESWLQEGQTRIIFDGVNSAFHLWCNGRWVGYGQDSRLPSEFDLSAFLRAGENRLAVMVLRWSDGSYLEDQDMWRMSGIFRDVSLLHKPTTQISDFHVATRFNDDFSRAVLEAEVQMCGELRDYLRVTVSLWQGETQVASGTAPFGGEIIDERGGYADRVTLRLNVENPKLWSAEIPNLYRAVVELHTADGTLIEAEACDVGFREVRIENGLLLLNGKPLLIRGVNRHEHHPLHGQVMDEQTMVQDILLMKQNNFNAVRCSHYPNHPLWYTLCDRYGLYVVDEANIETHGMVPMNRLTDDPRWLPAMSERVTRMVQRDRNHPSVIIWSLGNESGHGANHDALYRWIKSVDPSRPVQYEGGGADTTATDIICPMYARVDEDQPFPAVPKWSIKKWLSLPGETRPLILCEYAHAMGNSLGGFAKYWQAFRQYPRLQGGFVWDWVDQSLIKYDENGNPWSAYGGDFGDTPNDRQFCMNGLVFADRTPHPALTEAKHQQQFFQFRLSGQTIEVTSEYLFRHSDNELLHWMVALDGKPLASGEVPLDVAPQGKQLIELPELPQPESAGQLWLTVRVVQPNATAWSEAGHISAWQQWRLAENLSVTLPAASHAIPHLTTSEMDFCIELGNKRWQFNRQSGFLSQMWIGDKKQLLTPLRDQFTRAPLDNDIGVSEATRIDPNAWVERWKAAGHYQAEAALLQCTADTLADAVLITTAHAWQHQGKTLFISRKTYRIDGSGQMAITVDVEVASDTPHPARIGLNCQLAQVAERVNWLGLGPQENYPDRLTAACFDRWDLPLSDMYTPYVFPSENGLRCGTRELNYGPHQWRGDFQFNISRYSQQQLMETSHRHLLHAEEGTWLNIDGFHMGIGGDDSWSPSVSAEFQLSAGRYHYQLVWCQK

[8] = molecular target: Fatty acid synthase (Homo sapiens, UniProt P49327); assay: FAS thioesterase domain inhibitors, dose response, biochemical, kinetic fluorescence intensity (AID 624326); type: functional;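 further: rate of fluorescence rise from hydrolysis of a fluorogenic O-methyl fluorescein ester substrate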
Chain of Fatty acid synthase (P49327 whole entry, the tested form may be a part): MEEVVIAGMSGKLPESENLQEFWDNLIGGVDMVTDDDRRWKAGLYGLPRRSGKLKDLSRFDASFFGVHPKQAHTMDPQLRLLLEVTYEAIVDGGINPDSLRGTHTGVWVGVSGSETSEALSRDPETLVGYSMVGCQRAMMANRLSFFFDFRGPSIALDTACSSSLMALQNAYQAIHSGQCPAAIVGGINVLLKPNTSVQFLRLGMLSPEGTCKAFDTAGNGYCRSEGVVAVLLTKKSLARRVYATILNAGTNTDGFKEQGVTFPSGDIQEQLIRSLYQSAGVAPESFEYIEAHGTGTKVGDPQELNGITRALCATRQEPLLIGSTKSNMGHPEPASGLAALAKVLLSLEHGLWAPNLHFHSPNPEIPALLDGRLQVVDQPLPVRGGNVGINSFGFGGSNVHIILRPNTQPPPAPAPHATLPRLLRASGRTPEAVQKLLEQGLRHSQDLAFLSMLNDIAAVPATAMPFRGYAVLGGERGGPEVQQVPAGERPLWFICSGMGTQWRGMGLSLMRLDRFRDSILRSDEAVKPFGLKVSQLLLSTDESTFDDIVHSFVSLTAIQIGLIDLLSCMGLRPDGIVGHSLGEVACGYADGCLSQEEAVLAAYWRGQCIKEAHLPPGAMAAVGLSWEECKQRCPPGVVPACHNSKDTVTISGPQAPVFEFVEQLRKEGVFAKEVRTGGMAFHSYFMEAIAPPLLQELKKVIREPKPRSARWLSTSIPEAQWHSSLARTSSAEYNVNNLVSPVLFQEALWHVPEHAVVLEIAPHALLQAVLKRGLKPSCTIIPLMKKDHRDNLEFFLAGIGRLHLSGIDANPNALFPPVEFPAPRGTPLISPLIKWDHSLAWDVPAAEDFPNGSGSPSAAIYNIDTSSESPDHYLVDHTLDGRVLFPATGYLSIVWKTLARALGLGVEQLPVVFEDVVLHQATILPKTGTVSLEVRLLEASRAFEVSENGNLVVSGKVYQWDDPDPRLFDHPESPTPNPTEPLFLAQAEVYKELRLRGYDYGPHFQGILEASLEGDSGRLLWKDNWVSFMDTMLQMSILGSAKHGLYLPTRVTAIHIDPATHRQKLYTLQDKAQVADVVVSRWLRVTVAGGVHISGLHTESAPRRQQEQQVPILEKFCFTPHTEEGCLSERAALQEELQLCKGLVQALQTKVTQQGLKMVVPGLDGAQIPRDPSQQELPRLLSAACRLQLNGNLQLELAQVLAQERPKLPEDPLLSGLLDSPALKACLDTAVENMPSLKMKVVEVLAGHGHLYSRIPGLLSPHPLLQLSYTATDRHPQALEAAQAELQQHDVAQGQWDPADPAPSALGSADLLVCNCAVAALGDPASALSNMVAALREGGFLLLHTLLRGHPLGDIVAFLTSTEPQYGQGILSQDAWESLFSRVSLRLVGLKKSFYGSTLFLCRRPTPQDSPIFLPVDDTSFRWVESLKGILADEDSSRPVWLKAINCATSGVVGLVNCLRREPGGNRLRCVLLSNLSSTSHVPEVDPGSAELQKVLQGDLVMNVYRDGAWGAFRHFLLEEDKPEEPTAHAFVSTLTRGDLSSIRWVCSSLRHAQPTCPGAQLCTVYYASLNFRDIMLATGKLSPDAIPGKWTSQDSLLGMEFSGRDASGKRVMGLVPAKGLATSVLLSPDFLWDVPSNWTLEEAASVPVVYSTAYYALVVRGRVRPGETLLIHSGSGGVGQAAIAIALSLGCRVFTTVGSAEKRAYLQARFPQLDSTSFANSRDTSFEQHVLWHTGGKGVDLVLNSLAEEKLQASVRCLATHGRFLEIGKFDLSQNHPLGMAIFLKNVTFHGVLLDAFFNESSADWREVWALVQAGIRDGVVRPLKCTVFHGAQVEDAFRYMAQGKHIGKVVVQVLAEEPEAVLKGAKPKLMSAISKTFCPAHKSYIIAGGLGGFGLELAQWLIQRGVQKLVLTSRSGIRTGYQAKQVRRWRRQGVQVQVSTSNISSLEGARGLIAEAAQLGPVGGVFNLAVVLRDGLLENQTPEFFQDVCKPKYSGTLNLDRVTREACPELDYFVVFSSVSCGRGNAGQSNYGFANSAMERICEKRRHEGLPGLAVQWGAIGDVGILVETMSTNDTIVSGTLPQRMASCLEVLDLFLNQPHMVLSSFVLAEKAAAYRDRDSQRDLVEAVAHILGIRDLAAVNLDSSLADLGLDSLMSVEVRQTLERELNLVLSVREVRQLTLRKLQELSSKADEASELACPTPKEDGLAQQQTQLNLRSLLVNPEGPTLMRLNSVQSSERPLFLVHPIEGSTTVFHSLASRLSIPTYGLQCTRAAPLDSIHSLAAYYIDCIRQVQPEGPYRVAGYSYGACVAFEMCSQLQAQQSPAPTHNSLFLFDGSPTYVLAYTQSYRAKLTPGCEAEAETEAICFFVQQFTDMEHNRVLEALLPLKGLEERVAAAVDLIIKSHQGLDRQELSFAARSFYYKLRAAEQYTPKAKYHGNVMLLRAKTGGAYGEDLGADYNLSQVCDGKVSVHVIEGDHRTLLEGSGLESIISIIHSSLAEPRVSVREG

[9] = molecular target: Cytochrome P450 3A4 (Homo sapiens, UniProt P08684);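 further: CYP3A4 tested as one member of a cytochrome P450 panel screen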
Chain of Cytochrome P450 3A4 (P08684 whole entry): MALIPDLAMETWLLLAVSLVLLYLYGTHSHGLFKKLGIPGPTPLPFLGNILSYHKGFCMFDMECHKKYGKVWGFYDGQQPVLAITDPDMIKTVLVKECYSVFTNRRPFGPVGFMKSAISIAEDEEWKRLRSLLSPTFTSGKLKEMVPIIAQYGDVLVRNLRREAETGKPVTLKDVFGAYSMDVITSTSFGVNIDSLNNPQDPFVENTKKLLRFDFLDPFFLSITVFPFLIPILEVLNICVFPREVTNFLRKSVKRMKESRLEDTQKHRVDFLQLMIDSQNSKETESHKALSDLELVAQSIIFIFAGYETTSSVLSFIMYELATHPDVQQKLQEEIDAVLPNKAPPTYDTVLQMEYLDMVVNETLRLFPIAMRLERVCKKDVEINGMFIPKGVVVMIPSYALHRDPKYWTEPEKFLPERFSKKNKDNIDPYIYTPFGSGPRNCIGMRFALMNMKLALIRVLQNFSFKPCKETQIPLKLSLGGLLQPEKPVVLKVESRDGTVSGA

[10] = molecular target: Glyceraldehyde-3-phosphate dehydrogenase (Homo sapiens, UniProt P04406)
Chain of Glyceraldehyde-3-phosphate dehydrogenase (P04406 whole entry): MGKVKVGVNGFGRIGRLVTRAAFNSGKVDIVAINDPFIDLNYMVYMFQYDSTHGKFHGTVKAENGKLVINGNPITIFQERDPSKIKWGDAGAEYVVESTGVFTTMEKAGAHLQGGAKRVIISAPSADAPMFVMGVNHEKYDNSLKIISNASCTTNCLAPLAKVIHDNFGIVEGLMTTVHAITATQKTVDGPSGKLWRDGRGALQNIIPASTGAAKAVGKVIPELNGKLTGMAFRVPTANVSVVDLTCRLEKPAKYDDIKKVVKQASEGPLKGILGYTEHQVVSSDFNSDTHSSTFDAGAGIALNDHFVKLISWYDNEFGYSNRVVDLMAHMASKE

[11] = molecular target: T2, Alkaline phosphatase, tissue-nonspecific isozyme (Homo sapiens, UniProt P05186); assay: human TNAP enzyme inhibitors, SAR follow-up, biochemical, luminescent, dose response (AID 1056)
T2 sequence (P05186 whole entry): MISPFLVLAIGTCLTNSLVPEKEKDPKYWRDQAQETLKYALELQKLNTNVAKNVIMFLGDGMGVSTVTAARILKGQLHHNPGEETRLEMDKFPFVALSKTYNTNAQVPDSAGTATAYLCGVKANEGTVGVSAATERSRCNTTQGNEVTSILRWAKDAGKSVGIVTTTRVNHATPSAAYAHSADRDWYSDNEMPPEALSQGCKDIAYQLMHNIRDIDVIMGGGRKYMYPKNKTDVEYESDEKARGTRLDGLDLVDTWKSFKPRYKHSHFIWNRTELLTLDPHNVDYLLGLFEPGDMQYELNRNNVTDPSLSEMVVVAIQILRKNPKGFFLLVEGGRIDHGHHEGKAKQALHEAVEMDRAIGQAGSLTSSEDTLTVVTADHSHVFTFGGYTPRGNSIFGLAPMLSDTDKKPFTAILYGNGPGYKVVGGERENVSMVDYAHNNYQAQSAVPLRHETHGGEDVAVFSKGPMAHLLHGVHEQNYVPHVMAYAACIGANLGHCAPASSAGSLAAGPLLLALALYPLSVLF

[12] = cytotoxicity in HEK-293T cells, dose response, cytotoxicity control for TCR NF-kB inhibitor project, luminescence, T-cell screen hits (AID 489026); type: functional, cell-based;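 further: cells exposed to compound about 14 hours before the viability readout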
[13] = molecular target: Cytochrome P450 2C19 (Homo sapiens, UniProt P33261); assay: Cytochrome panel assay with activity outcomes. Panel member name: p450-cyp2c19 Compounds with AC50 equal or less than 10 uM are considered active; type: functional; details: read-out: AC50
Chain of Cytochrome P450 2C19 (P33261 whole entry): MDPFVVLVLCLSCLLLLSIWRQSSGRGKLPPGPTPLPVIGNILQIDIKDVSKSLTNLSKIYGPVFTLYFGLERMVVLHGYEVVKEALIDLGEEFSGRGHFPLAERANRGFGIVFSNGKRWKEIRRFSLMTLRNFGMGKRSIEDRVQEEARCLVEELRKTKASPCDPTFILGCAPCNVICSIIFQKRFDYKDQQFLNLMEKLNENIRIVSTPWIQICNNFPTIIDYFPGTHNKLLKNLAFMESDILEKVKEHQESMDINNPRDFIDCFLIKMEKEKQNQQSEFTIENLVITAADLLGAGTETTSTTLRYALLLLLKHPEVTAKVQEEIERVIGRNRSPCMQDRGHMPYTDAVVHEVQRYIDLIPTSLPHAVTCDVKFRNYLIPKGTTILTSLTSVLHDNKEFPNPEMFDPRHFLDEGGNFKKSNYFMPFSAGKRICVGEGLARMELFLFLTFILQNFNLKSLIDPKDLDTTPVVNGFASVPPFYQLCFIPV

[14] = molecular target: T3, Cytochrome P450 1A2 (Homo sapiens, UniProt P05177);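 further: PubChem cytochrome P450 panel assay, CYP1A2 panel member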
T3 sequence (P05177 whole entry): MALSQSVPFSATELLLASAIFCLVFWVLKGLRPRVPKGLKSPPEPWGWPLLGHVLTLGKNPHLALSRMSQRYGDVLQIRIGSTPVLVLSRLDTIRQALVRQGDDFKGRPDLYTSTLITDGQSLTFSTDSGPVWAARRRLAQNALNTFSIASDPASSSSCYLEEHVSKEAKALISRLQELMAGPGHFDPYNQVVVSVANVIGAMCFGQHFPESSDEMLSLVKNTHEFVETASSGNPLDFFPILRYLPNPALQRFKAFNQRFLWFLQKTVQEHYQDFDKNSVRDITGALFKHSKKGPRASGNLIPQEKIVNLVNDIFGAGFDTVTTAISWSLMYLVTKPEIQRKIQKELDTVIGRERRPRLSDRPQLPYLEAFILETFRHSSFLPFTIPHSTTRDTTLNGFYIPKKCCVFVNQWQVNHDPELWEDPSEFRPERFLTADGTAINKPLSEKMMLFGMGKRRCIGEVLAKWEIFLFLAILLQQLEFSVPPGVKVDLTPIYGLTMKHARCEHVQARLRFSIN

[15] = cells; type: functional, cell-based; remark: listed apart in the source
[16] = molecular target: T4, Trace amine-associated receptor 1 (Homo sapiens, UniProt Q96RJ0); assay: Fluorescence-based cell-based high throughput dose response assay to identify agonists of the human trace amine associated receptor 1 (TAAR1).; type: functional
T4 sequence (Q96RJ0 whole entry): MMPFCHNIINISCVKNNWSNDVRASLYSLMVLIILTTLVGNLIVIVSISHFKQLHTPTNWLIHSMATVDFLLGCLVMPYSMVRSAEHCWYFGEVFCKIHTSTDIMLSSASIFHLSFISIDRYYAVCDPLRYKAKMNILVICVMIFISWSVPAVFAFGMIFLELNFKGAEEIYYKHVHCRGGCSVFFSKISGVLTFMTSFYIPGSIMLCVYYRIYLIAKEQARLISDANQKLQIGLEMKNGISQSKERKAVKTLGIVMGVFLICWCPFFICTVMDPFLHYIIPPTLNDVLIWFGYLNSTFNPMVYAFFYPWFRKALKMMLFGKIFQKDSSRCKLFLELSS

[17] = molecular target: T4, Trace amine-associated receptor 1; assay: Counterscreen for agonists of the human trace amine associated receptor 1 (hTAAR1): Fluorescence-based cell-based high throughput dose response assay to identify hTAAR1 agonist that also desensitize TAAR1 receptor response.; type: functional
[18] = cells; type: functional, cell-based; remark: listed apart in the source
[19] = inhibitors of intracellular T. cruzi replication, confirmation, NIH3T3 host cells, beta-gal luminescence (AID 2044); type: functional, cell-based;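 further: intracellular parasites grown in NIH/3T3 mouse fibroblasts as host cells; luminescent beta-galactosidase reporter signal from transgenic T. cruzi replicating inside host cells; inhibitors lower the luminescence signal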
[20] = cytotoxicity toward NIH3T3 fibroblasts, dose response, counter-screen, cell-based, ATP luminescence, mouse fibroblasts (AID 2010); type: functional;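 further: cells exposed to compound for about 90 hours before reading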
[21] = molecular target: T5, Short transient receptor potential channel 4 (Mus musculus, UniProt Q9QUQ5); assay: mouse TRPC4 channel inhibitors, dose response, cell-based, HEK293 TRPC4/mu-opioid, Fluo-4 calcium (AID 434942); type: functional;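 further: potency of inhibitors blocking the TRPC4 calcium response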
T5 sequence (Q9QUQ5 whole entry): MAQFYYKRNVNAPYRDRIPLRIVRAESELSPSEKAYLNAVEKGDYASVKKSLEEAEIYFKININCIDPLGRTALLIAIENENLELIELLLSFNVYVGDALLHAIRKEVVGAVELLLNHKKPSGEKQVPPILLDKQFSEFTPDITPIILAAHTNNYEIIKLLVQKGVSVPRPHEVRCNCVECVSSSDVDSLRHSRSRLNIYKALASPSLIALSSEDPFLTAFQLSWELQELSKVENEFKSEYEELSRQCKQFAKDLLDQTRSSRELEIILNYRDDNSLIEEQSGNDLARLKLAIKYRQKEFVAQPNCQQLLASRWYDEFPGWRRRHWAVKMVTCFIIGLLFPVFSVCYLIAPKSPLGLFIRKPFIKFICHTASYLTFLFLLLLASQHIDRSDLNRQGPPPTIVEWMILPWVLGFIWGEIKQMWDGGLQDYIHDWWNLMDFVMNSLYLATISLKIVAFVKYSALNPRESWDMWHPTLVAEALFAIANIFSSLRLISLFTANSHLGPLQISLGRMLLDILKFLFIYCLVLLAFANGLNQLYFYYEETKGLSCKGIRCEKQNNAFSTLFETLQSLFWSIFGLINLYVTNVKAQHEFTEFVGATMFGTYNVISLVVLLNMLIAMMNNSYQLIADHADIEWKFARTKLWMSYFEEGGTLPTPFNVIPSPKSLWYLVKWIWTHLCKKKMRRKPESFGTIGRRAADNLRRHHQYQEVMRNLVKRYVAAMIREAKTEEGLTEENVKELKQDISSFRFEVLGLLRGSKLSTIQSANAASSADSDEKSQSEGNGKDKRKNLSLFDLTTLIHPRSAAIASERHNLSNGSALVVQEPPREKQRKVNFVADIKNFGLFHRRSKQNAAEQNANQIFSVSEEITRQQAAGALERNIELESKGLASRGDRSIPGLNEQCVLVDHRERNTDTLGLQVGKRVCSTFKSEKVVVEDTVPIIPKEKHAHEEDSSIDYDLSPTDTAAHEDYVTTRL

[22] = molecular target: Cytochrome P450 2C9 (Homo sapiens, UniProt P11712)

CCN1CCN(C(=O)C(NS(=O)(=O)c2ccc3nc(C)sc3c2)C(C)C)CC1 (stereo unspecified)
AC50 [1]: > 150 µM (inactive)

CC1=C(C)CC(C(=O)Nc2nc(-c3ccc(C)cc3C)c(C)s2)C(C(=O)O)C1 (stereo unspecified)
IC50 [2]: 3.71 µM (active)

CCOc1ccc(NC(=O)c2ccc(NC(=O)c3cn4c5c(c(N6CCN(C)CC6)c(F)cc5c3=O)OCC4C)cc2)cc1 (stereo unspecified)
AC50 [1]: 0.645 µM (active)

COc1ccc(N2CCN(C(=O)C3COc4ccccc4O3)CC2)cc1 (stereo unspecified)
EC50 [3]: > 350 µM (not active) | EC50 [4]: > 350 µM (not active)

COc1ccccc1N1CCN(C(=O)c2cc3cc(Cl)ccc3[nH]2)CC1
EC50 [5]: 38.6 µM (active) | EC50 [6]: > 38 µM (not active) | IC50 [7]: > 80 µM (inactive)

COCc1cc(C)nc(SCC[N+](C)(C)CC(=O)Nc2ccccc2)c1C#N
IC50 [8]: 12.4 µM (active)

O=C(CCNC(=O)Cn1ccc2ccccc2c1=O)NCCCN1CCN(c2ccc(F)cc2)CC1
AC50 [9]: inconclusive

CCc1ccc(-c2cc(C(=O)O)[nH]n2)cc1
IC50 [10]: > 100 µM (not active) | IC50 [11]: 17.6 µM (active)

CC(C)Nc1ccc(C(CC(N)=O)NC(=O)c2ccc(Br)cc2)cc1[N+](=O)[O-] (stereo unspecified)
IC50 [12]: > 80 µM (inactive)

COc1ccc(Cl)c(OC)c1C(=O)NC(=O)Nc1c(F)cc(F)cc1F
EC50 [3]: > 350 µM (not active) | EC50 [4]: > 350 µM (not active)

O=C(Nc1nc2c(s1)CCCC2)c1cccc(S(=O)(=O)N2CCCc3ccccc32)c1
AC50 [1]: 134 µM (active)

Cc1cc(C(=O)OCC(=O)N2C(C)CCCC2C)c(C)o1 (stereo unspecified)
IC50 [2]: 14.3 µM (active)

Cc1cc(C)c(S(=O)(=O)N2CCN(C(=O)c3cc4ccccc4o3)CC2)c(C)c1
IC50 [7]: > 80 µM (inactive)

CCCNC(=O)c1cn(CC)c2cc(N3CCN(C)CC3)c(F)cc2c1=O
AC50 [1]: 2.04 µM (active)

O=C(Oc1ccccc1)N1CCC2(CC1)CN(c1ccccc1)C2
AC50 [13]: 15.8 µM (inconclusive) | AC50 [14]: 15.8 µM (inconclusive) | AC50 [9]: inconclusive

COc1ccc(NC(=O)N2CCC3(CC2)CCN(C(=O)c2cccn2C)CC3)cc1
AC50 [9]: inconclusive

COc1ccc(NS(=O)(=O)c2ccc(NC(=S)NC(=O)C(C)C)cc2)cc1
IC50 [15]: 11.5 µM (inactive) | EC50 [16]: 1.99 µM (active) | IC50 [17]: 6.23 µM (active) | EC50 [18]: 19 µM (inactive)

CN1/C(=C\C(=O)C[n+]2ccc3ccccc3c2)C(C)(C)c2ccccc21
EC50 [19]: 0.505 µM (active) | EC50 [20]: > 60 µM (not active) | EC50 [21]: 5.31 µM (active) | IC50 [12]: > 80 µM (inactive)

CC(C)N(C(C)C)S(=O)(=O)c1ccc(N2CCc3ccccc3C2)nc1
EC50 [3]: > 350 µM (not active) | EC50 [4]: > 350 µM (not active)

COC(=O)C1Nc2cc(C(F)(F)F)ccc2S(=O)(=O)N1 (stereo unspecified)
IC50 [10]: > 100 µM (not active)

COc1ccc(N(CC(=O)NCCSc2ccccc2)S(=O)(=O)c2ccccc2)cc1
IC50 [7]: > 80 µM (inactive)

O=C(c1nc(C(F)(F)F)[nH]c1-c1ccccc1)N1CCc2ccccc2C1
IC50 [15]: > 29.9 µM (inactive) | EC50 [16]: 2.77 µM (active) | IC50 [17]: 9.85 µM (active) | EC50 [18]: > 29.9 µM (inactive)

Cc1cc(C)n(CCCNC(=O)COc2ccc([N+](=O)[O-])cc2)n1
AC50 [1]: 89.1 µM (active)

O=C(c1cc(=O)c2cc(Cl)ccc2o1)N1CCN(Cc2ccccc2)CC1
IC50 [7]: > 80 µM (inactive)

CC(C)[C@H](NC(=O)c1ccc(Cl)c(Cl)c1)C(=O)N1CCC[C@H]1C(=O)NCCc1ccccc1Cl
IC50 [15]: > 29.9 µM (inactive) | EC50 [16]: 1.45 µM (active) | IC50 [17]: 1.53 µM (active) | EC50 [18]: > 29.9 µM (inactive)

Cc1cc(C)c2cc(C#N)c(N3CCNCC3)nc2c1
IC50 [15]: > 30 µM (inactive) | EC50 [16]: 1.55 µM (active) | IC50 [17]: 4.28 µM (active) | EC50 [18]: > 30 µM (inactive)

C[C@H]1CCCC=CC2C[C@H](OC(=O)CN(C)C)C[C@@H]2[C@@H](O)/C=C\C(=O)O1 (stereo partly specified)
AC50 [9]: inconclusive | AC50 [22]: inconclusive
